This note sets out measurements from US20250171437A1 (Agios Pharmaceuticals,Inc., priority 2022, published 2025).

In general, AC50 refers to the concentration at which the activity in the assay is half-maximal.

One experiment concerns the target T1, human PAH with the R408W mutation (A375 R408W cells) (Homo sapiens, UniProt P00439, R408W).
T1 construct: expressed in transfected cells
T1 sequence (P00439 1-452 R408W): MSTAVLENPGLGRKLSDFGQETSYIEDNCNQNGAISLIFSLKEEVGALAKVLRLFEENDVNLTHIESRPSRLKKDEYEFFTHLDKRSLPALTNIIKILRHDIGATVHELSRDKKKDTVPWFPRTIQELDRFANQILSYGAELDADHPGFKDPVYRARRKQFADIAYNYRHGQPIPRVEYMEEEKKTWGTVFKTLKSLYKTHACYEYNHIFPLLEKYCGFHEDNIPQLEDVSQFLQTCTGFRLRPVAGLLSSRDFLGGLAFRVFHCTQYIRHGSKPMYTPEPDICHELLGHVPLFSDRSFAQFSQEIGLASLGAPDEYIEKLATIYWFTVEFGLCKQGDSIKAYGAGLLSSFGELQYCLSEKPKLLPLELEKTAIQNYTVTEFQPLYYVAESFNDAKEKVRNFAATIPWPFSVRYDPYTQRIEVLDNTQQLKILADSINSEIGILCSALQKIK
The experiment can be described thus: Cell Based Phenylalanine Flux Assay. Particulars: A375 R408W cells; 24 hrs with compound, then 20 μM sepiapterin and 800 μM 13C9,15N-Phenylalanine for 4 hours; 13C-Tyrosine by LC-MS; average where tested multiple times. In a few lines:
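LC-MS quantitation of 13C-tyrosine in media gave AC50 values. Stable A375 R408W PAH cells were preincubated 24 h with compound, then fed 800 μM labelled Phe plus 20 μM sepiapterin for 4 h. Dose curves were 10-point, tested in duplicate, averaged over repeat runs.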
With `O=C(c1cnn2cc(F)c(Cl)cc12)N1CCc2[nH]cnc2[C@@H]1c1nc2cc(F)ccc2o1` [Example 220, (R)-(5-chloro-6-fluoropyrazolo[1,5-a]pyridin-3-yl)(4-(5-fluorobenzo[d]oxazol-2-yl)-6,7-dihydro-1H-imidazo[4,5-c]pyridin-5(4H)-yl)methanone], the AC50 was at least 5 µM.
In the case of `CC(O)c1nc(Br)c(C(=O)N2CCc3[nH]cnc3[C@H]2c2nc3cc(F)ccc3o2)o1` (single isomer, unassigned) [Example 225], the AC50 lay within 1 to 5 µM.
In the case of `Cc1ccc2nc([C@H]3c4nc[nH]c4CCN3C(=O)c3oc(C(C)(C)O)nc3C(F)F)oc2c1` [Example 316, (R)-(4-(difluoromethyl)-2-(2-hydroxypropan-2-yl)oxazol-5-yl)(4-(6-methylbenzo[d]oxazol-2-yl)-6,7-dihydro-1H-imidazo[4,5-c]pyridin-5(4H)-yl)methanone], the AC50 was 1 to 5 µM.
With `Cc1ccc2oc([C@H]3c4nc[nH]c4CCN3C(=O)c3ncc(Cl)s3)nc2c1` [Example 2, (R)-(5-chlorothiazol-2-yl)(4-(5-methylbenzo[d]oxazol-2-yl)-6,7-dihydro-1H-imidazo[4,5-c]pyridin-5(4H)-yl)methanone], the AC50 was at least 5 µM.
`O=C(c1oc(C2(O)CC2)nc1C(F)F)N1CCc2[nH]cnc2[C@@H]1c1nc2cc(F)ccc2o1` [Example 142, (R)-(4-(difluoromethyl)-2-(1-hydroxycyclopropyl)oxazol-5-yl)(4-(5-fluorobenzo[d]oxazol-2-yl)-6,7-dihydro-1H-imidazo[4,5-c]pyridin-5(4H)-yl)methanone]: the AC50 is 1 to 5 µM.
On the same count and under the same terms, then `Cn1cc(-c2nnc(C(=O)N3CCc4[nH]cnc4[C@H]3c3nc4cc(F)cc(F)c4o3)o2)cn1` [Example 665, (S)-(4-(5,7-difluorobenzo[d]oxazol-2-yl)-6,7-dihydro-1H-imidazo[4,5-c]pyridin-5(4H)-yl)(5-(1-methyl-1H-pyrazol-4-yl)-1,3,4-oxadiazol-2-yl)methanone], with at most 0.5 µM.
For the compound `COc1cccc2nc([C@H]3c4nc[nH]c4CCN3C(=O)c3ccnn3C)oc12` [Example 750, (R)-(4-(7-methoxybenzo[d]oxazol-2-yl)-6,7-dihydro-1H-imidazo[4,5-c]pyridin-5(4H)-yl)(1-methyl-1H-pyrazol-5-yl)methanone], the AC50 is 1 to 5 µM.
Still for that read-out and setting: then `COc1ccc2c(C(=O)N3CCc4[nH]cnc4[C@H]3c3nc4cccc(F)c4o3)cnn2c1` [Example 325, (S)-(4-(7-fluorobenzo[d]oxazol-2-yl)-6,7-dihydro-1H-imidazo[4,5-c]pyridin-5(4H)-yl)(6-methoxypyrazolo[1,5-a]pyridin-3-yl)methanone], with at most 0.5 µM; and `Cn1ccc(-c2nc(C(F)F)c(C(=O)N3CCc4[nH]cnc4[C@@H]3c3nc4cccc(F)c4o3)o2)n1` [Example 592, (R)-(4-(difluoromethyl)-2-(1-methyl-1H-pyrazol-3-yl)oxazol-5-yl)(4-(7-fluorobenzo[d]oxazol-2-yl)-6,7-dihydro-1H-imidazo[4,5-c]pyridin-5(4H)-yl)methanone], with 0.5 to 1 µM; and `CC(O)c1nc(Cl)c(C(=O)N2CCc3[nH]cnc3[C@@H]2c2nc3cc(F)ccc3o2)o1` (single isomer, unassigned) [Example 234], with 1 to 5 µM.
On the same count and under the same terms, in the case of `Cc1ccc2nc([C@@H]3c4nc[nH]c4CCN3C(=O)c3oc(C(C)(C)O)nc3C(F)F)oc2c1` [Example 315, (S)-(4-(difluoromethyl)-2-(2-hydroxypropan-2-yl)oxazol-5-yl)(4-(6-methylbenzo[d]oxazol-2-yl)-6,7-dihydro-1H-imidazo[4,5-c]pyridin-5(4H)-yl)methanone] it was at most 0.5 µM; in that of `Cn1ccc(-c2nnc(C(=O)N3CCc4[nH]cnc4[C@@H]3c3nc4cccc(F)c4o3)o2)n1` [Example 338, (R)-(4-(7-fluorobenzo[d]oxazol-2-yl)-6,7-dihydro-1H-imidazo[4,5-c]pyridin-5(4H)-yl)(5-(1-methyl-1H-pyrazol-3-yl)-1,3,4-oxadiazol-2-yl)methanone], 0.5 to 1 µM.
For the compound `CC(C)n1ncnc1C(=O)N1CCc2[nH]cnc2[C@@H]1c1nc2cccc(F)c2o1` [Example 708, (R)-(4-(7-fluorobenzo[d]oxazol-2-yl)-6,7-dihydro-1H-imidazo[4,5-c]pyridin-5(4H)-yl)(1-isopropyl-1H-1,2,4-triazol-5-yl)methanone], the AC50 was in the range of 0.5 to 1 µM.
The same measure, in the same setting: then `COc1cccc2nc([C@@H]3c4nc[nH]c4CCN3C(=O)c3nc(C(F)(F)F)nn3C)oc12` [Example 697, (S)-(4-(7-methoxybenzo[d]oxazol-2-yl)-6,7-dihydro-1H-imidazo[4,5-c]pyridin-5(4H)-yl)(1-methyl-3-(trifluoromethyl)-1H-1,2,4-triazol-5-yl)methanone], with 0.5 to 1 µM.
On the same count and under the same terms, in the case of `CC(C)(O)c1nc(Br)c(C(=O)N2CCc3[nH]cnc3[C@H]2c2nc3c(F)cccc3o2)o1` [Example 252, (S)-(4-bromo-2-(2-hydroxypropan-2-yl)oxazol-5-yl)(4-(4-fluorobenzo[d]oxazol-2-yl)-6,7-dihydro-1H-imidazo[4,5-c]pyridin-5(4H)-yl)methanone] it was at most 0.5 µM.
For the compound `Cc1ccc2nc([C@H]3c4nc[nH]c4CCN3C(=O)c3nnc(-c4ccn(C(F)F)n4)o3)oc2c1` [Example 704, (R)-(5-(1-(difluoromethyl)-1H-pyrazol-3-yl)-1,3,4-oxadiazol-2-yl)(4-(6-methylbenzo[d]oxazol-2-yl)-6,7-dihydro-1H-imidazo[4,5-c]pyridin-5(4H)-yl)methanone], the AC50 is 1 to 5 µM.
Take `Cc1ccc2nc([C@@H]3c4nc[nH]c4CCN3C(=O)c3nnc(-c4ccn(C(F)F)n4)o3)oc2c1` [Example 703, (S)-(5-(1-(difluoromethyl)-1H-pyrazol-3-yl)-1,3,4-oxadiazol-2-yl)(4-(6-methylbenzo[d]oxazol-2-yl)-6,7-dihydro-1H-imidazo[4,5-c]pyridin-5(4H)-yl)methanone]: the half-maximal activity concentration (AC50) lay within 0.5 to 1 µM.
As to `Cc1nc(C(C)(C)O)oc1C(=O)N1CCc2[nH]cnc2[C@@H]1c1nc2cccc(F)c2o1` [Example 267, (R)-(4-(7-fluorobenzo[d]oxazol-2-yl)-6,7-dihydro-1H-imidazo[4,5-c]pyridin-5(4H)-yl)(2-(2-hydroxypropan-2-yl)-4-methyloxazol-5-yl)methanone], the AC50 lay within 1 to 5 µM.
For the compound `O=C(c1nnc(-c2ccccn2)o1)N1CCc2[nH]cnc2[C@@H]1c1nc2ccc(F)cc2o1` [Example 304, (R)-(4-(6-fluorobenzo[d]oxazol-2-yl)-6,7-dihydro-1H-imidazo[4,5-c]pyridin-5(4H)-yl)(5-(pyridin-2-yl)-1,3,4-oxadiazol-2-yl)methanone], the concentration at half-maximal activity (AC50) was 1 to 5 µM.
On the same count and under the same terms, in the case of `O=C(c1nnc(-c2ccccn2)o1)N1CCc2[nH]cnc2[C@@H]1c1nc2cc(F)cc(F)c2o1` [Example 579, (R)-(4-(5,7-difluorobenzo[d]oxazol-2-yl)-6,7-dihydro-1H-imidazo[4,5-c]pyridin-5(4H)-yl)(5-(pyridin-2-yl)-1,3,4-oxadiazol-2-yl)methanone] it was at most 0.5 µM.
Same read-out and setting: in the case of `CC(F)(F)c1ncoc1C(=O)N1CCc2[nH]cnc2[C@H]1c1nc2cccc(F)c2o1` [Example 620, (S)-(4-(1,1-difluoroethyl)oxazol-5-yl)(4-(7-fluorobenzo[d]oxazol-2-yl)-6,7-dihydro-1H-imidazo[4,5-c]pyridin-5(4H)-yl)methanone] it was at most 0.5 µM.

The experiment is the same for the next values; noted with them: A375 cells expressing R408W PAH; 24 hrs with compound, then 20 μM sepiapterin and 800 μM 13C9,15N-Phenylalanine for 4 hours; 13C-Tyrosine by LC-MS; average where tested multiple times.
Turning to `CC(C)(O)c1noc(C(=O)N2CCc3[nH]cnc3C2c2nc3ccc(F)cc3o2)n1` (centres unmarked), the AC50 is at least 5 µM.
Still for that read-out and setting: then `O=C(c1cnco1)N1CCc2[nH]cnc2C1c1nc2c(F)cc(F)cc2o1` (centres unmarked), with at least 5 µM; and `Cc1ccc2oc(C3c4nc[nH]c4CCN3C(=O)c3nnc(C(C)(C)O)o3)nc2c1` (centres unmarked), with 1 to 5 µM; and `O=C(c1cnn2cc(CN3CCC(F)(F)C3)ccc12)N1CCc2[nH]cnc2[C@H]1c1nc2cc(F)ccc2o1` (single isomer, unassigned), with 1 to 5 µM.
The same measure, in the same setting: then `O=C(c1oc(C2CCN2)nc1C(F)F)N1CCc2[nH]cnc2C1c1nc2cc(F)ccc2o1` (centres unmarked), with 1 to 5 µM; and `O=C(CCc1nccs1)N1CCc2[nH]cnc2C1c1nc2cc(F)ccc2o1` (centres unmarked), with 1 to 5 µM.
On the same count and under the same terms, then `Cn1nc(C(F)F)nc1C(=O)N1CCc2[nH]cnc2C1c1nc2c(F)c(F)ccc2o1` (centres unmarked), with 1 to 5 µM.
With `O=C(CCc1cncs1)N1CCc2[nH]cnc2C1c1nc2cc(F)ccc2o1` (centres unmarked), the AC50 was 1 to 5 µM.
With `CC(C)(O)c1cc(C(=O)N2CCc3[nH]cnc3C2c2nc3c(F)cccc3o2)no1` (centres unmarked) [listing 1 of 2 here], the AC50 was at least 5 µM.
As to `CC(C)(O)c1cc(C(=O)N2CCc3[nH]cnc3C2c2nc3c(F)cccc3o2)no1` (centres unmarked) [listing 2 of 2 here], the AC50 was in the range of 1 to 5 µM.
The same measure, in the same setting: then `O=C(c1cnc(N2CCC(F)CC2)o1)N1CCc2[nH]cnc2C1c1nc2cc(F)ccc2o1` (centres unmarked), with 1 to 5 µM; and `O=C(c1cnn2cc(N3CCC4(CC3)CC4)ccc12)N1CCc2[nH]cnc2C1c1nc2cc(F)ccc2o1` (centres unmarked), with at least 5 µM; and `Cc1cccc2nc(C3c4nc[nH]c4CCN3C(=O)c3cnc(C(C)(C)O)o3)oc12` (centres unmarked), with 1 to 5 µM.
The same measure, in the same setting: then `Cn1cnnc1C(=O)N1CCc2[nH]cnc2C1c1nc2cccc(F)c2o1` (centres unmarked), with 1 to 5 µM.
